Here are results for 16 compounds from publication PMC5006990 (PLoS ONE, 2016).

Assay [1] has as its system M. tuberculosis ATCC 35801 (strain Erdman). In words: Microtiter broth dilution MIC, Mtb Erdman. The following applies: for MIC (μg/mL) Mtb: Erdmann strain (ATCC 35801), screening rounds 1 and 2; for MIC (μg/mL) Mtb Erdman: Table 1 panel. (In general: In broth dilution the organism is exposed to a series of concentrations in liquid medium.)
Assay [2] deals with Mtb. Conditions: cited from earlier work; for inhibition of the growth of Mtb: in words.
The target of assay [3] is T1, MtbDHFR (Mycobacterium tuberculosis, UniProt P9WNX1). The following applies: in words; cited from earlier work.
T1 sequence (P9WNX1 whole entry): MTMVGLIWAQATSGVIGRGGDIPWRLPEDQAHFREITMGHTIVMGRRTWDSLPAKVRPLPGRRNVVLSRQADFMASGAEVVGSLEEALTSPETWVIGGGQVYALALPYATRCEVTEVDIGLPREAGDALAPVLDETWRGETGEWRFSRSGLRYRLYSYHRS
Assay [4] concerns Mtb 5. In words: microbe, parasite or virus in culture. In kind it is cell-based, Mycobacterium tuberculosis. Conditions: Mycobacterium tuberculosis, 5, read-out: MIC (μg/mL) Mtb 5.
In assay [5] the test system is Mtb 352. Nature of the assay: microbe, parasite or virus in culture. Format: cell-based, Mycobacterium tuberculosis. The following applies: Mycobacterium tuberculosis, 352, read-out: MIC (μg/mL) Mtb 352.
In assay [6] the test system is Mtb 56. In words: microbe, parasite or virus in culture. The following applies: Mycobacterium tuberculosis, 56, read-out: MIC (μg/mL) Mtb 56. In kind it is cell-based, Mycobacterium tuberculosis.
Assay [7] relates to Mtb C-31. In words: microbe, parasite or virus in culture. Conditions: Mycobacterium tuberculosis, C31, read-out: MIC (μg/mL) Mtb C-31. In kind it is cell-based.
The subject of assay [8] is Mtb 365. Nature of the assay: microbe, parasite or virus in culture. In kind it is cell-based, Mycobacterium tuberculosis. The following applies: Mycobacterium tuberculosis, 365, read-out: MIC (μg/mL) Mtb 365.
Assay [9] concerns M. smegmatis (Overexpressing DHFR Strain 2). Nature of the assay: MIC against M. smegmatis overexpressing DHFR, strain 2. The following applies: Mycolicibacterium smegmatis, read-out: MIC (µg/mL) M. smegmatis (Overexpressing DHFR Strain 2).
Assay [10] relates to Mtb 276. In words: microbe, parasite or virus in culture. In kind it is cell-based, Mycobacterium tuberculosis. The following applies: Mycobacterium tuberculosis, 276, read-out: MIC (μg/mL) Mtb 276.
In assay [11] the test system is M. smegmatis (Overexpressing DHFR Strain 1). Nature of the assay: MIC against M. smegmatis overexpressing DHFR, strain 1. The following applies: Mycolicibacterium smegmatis, read-out: MIC (µg/mL) M. smegmatis (Overexpressing DHFR Strain 1).
In assay [12] the test system is M. smegmatis (parent strain). In words: MIC against M. smegmatis parent strain. Conditions: Mycolicibacterium smegmatis, read-out: MIC (µg/mL) M. smegmatis (parent strain).
Assay [13] has as its target T1, MtbDHFR. In words: biochemical. In kind it is biochemical.
For assay [14], the target named is T2, HuDHFR (Homo sapiens, UniProt P00374).
T2 construct: made in house
T2 sequence (P00374 1-187): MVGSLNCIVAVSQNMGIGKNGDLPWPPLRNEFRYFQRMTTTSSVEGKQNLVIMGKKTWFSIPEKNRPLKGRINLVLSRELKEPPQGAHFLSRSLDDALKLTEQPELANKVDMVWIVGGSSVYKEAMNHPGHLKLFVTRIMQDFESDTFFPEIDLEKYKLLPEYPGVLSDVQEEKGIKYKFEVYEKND
Nature of the assay: Human DHFR enzyme inhibition (NADPH oxidation at 340 nm). In kind it is biochemical. Conditions: triplicate, mean ± SD.

In brackets after ≈: the same amount, converted by molar mass. Like-named read-outs stand apart in the source and are kept apart here.

On to `COc1cc(NCc2ccc3nc(N)nc(N)c3c2C)cc(OC)c1OC` [Trimetrexate], for which, in [1], the “MIC (μg/mL) Mtb” value came to 4 µg/mL (≈ 10.8 µM). Besides, the “inhibition of the growth of Mtb” value in assay [2] was “fail to inhibit the growth”. For the same compound, the “inhibition of the MtbDHFR enzyme” value in [3] is listed as “potent inhibitors”.
As to `CCc1nc(N)nc(N)c1C#C[C@@H](C)c1cc(-c2ccc(C(=O)O)cc2)ccc1OC` [UCP1164], the “MIC (μg/mL) Mtb” value in [1] stood at 0.5 µg/mL (≈ 1.2 µM).
Consider `CN(Cc1cnc2nc(N)nc(N)c2n1)c1ccc(C(=O)N[C@@H](CCC(=O)O)C(=O)O)cc1` [Methotrexate], for which the “inhibition of the growth of Mtb” value in assay [2] was “fail to inhibit the growth”.
Turning to `Nc1nc(N)c2c(Cl)c(CNc3ccc(C(=O)O)cc3)ccc2n1` [DQn-1], the MIC in assay [2] (Glaxo antifolate collection screen) is 0.03 µM; in assay [2] (Glaxo antifolate library screen), 0.03 µg/mL.
As for `CCc1nc(N)nc(N)c1C#C[C@H](C)c1cc(OC)cc(-c2ccc(C(=O)O)cc2)c1` [UCP1172], the MIC in assay [4] was 0.25 µg/mL (≈ 0.6 µM); in assay [5] it was 0.06 µg/mL (≈ 0.144 µM); in assay [6], 0.06 µg/mL (≈ 0.144 µM); in assay [7], 8 µg/mL (≈ 19.2 µM); in assay [8], < 0.03 µg/mL. Also, in [1], the “MIC (μg/mL) Mtb” value was <0.03 µg/mL. For the same compound, the “MIC (μg/mL) Mtb Erdman” value in assay [1] is <0.03 µg/mL.
As to `CCc1nc(N)nc(N)c1C#CC(C)c1cc(-c2cncn2C)ccc1OC` (stereo not shown) [UCP1084], the MIC was found to be 4 µg/mL (≈ 10.6 µM) in [4]; 4 µg/mL (≈ 10.6 µM) in assay [5]; 4 µg/mL (≈ 10.6 µM) in [6]; 8 µg/mL (≈ 21.3 µM) in [7]; 16 µg/mL (≈ 42.5 µM) in assay [9]; 4 µg/mL (≈ 10.6 µM) in assay [10]. Besides, the MIC in assay [8] was 4 µg/mL (≈ 10.6 µM); in [11], 64 µg/mL (≈ 170 µM); in assay [12] it was 1 µg/mL (≈ 2.66 µM). Also, the “MIC (μg/mL) Mtb” value in assay [1] was 2 µg/mL (≈ 5.31 µM). Also, the “MIC (μg/mL) Mtb Erdman” value in assay [1] amounted to 4 µg/mL (≈ 10.6 µM).
Broadly, the IC50 is the concentration that gives 50% inhibition. As to `CCc1nc(N)nc(N)c1C#CCc1cc(OC)c(OC)c(-c2ccncc2)c1` [UCP1039], the “MIC (μg/mL) Mtb” value in [1] is 32 µg/mL (≈ 82.2 µM). In addition, the IC50 in assay [13] (triplicate, mean ± SD, read-out: IC50 (nM) MtbDHFR) was 297 ± 38 nM; in [14], 495 ± 58 nM.
In the case of `NNC(=O)c1ccncc1` [INH, Isoniazid, reference compound], the MIC in assay [4] came to 4 µg/mL (≈ 29.2 µM); in assay [5], 1 µg/mL (≈ 7.29 µM); in assay [6], 1 µg/mL (≈ 7.29 µM); in assay [7], 4 µg/mL (≈ 29.2 µM); in assay [8] it was 2 µg/mL (≈ 14.6 µM). Also, the “MIC (μg/mL) Mtb” value in assay [1] worked out at 0.03 µg/mL (≈ 0.219 µM). For the same compound, the “MIC (μg/mL) Mtb Erdman” value in assay [1] turned out to be 0.125 µg/mL (≈ 0.911 µM).
Turning to `CCc1nc(N)nc(N)c1C#CCc1cc(-c2ccc(C(=O)O)cc2)ccc1OC` [UCP1106], the MIC in assay [4] was 8 µg/mL (≈ 19.9 µM); in [5], 16 µg/mL (≈ 39.8 µM); in assay [6], 16 µg/mL (≈ 39.8 µM); in assay [7], > 32 µg/mL; in assay [9] it was > 32 µg/mL; in assay [10], 16 µg/mL (≈ 39.8 µM). Also, the figures for the MIC in assay [8], in assay [11] and in assay [12] were 4 µg/mL (≈ 9.94 µM), > 32 µg/mL and 8 µg/mL (≈ 19.9 µM), respectively. In assay [1], the “MIC (μg/mL) Mtb” value was 4 µg/mL (≈ 9.94 µM). For the same compound, the “MIC (μg/mL) Mtb Erdman” value in assay [1] was found to be 16 µg/mL (≈ 39.8 µM).
On to `CCc1nc(N)nc(N)c1C#CC(C)c1cc2c(c(-c3cncn3C)c1)OCO2` (stereo not shown) [UCP1102], for which the MIC in assay [4] stood at 8 µg/mL (≈ 20.5 µM); in [5] it was 4 µg/mL (≈ 10.2 µM); in assay [6], 8 µg/mL (≈ 20.5 µM); in [7], 8 µg/mL (≈ 20.5 µM); in [9] it was 32 µg/mL (≈ 82 µM); in assay [10], 4 µg/mL (≈ 10.2 µM). Also, the MIC in [8] came to 8 µg/mL (≈ 20.5 µM); in assay [11], 64 µg/mL (≈ 164 µM); in [12], 1 µg/mL (≈ 2.56 µM). In assay [1], the “MIC (μg/mL) Mtb” value was determined as 2 µg/mL (≈ 5.12 µM). Further, the “MIC (μg/mL) Mtb Erdman” value in assay [1] was found to be 4 µg/mL (≈ 10.2 µM).
Turning to `CCc1nc(N)nc(N)c1C#C[C@H](C)c1cc2c(c(-c3ccncc3)c1)OCO2` [UCP1098], the MIC in assay [4] stood at 8 µg/mL (≈ 20.6 µM); in assay [5], 8 µg/mL (≈ 20.6 µM); in assay [6], 8 µg/mL (≈ 20.6 µM); in [7] it was 16 µg/mL (≈ 41.3 µM); in assay [9] it was 32 µg/mL (≈ 82.6 µM); in assay [10], 8 µg/mL (≈ 20.6 µM). In addition, the MIC was 4 µg/mL (≈ 10.3 µM) in [8], 64 µg/mL (≈ 165 µM) in assay [11] and 0.5 µg/mL (≈ 1.29 µM) in [12]. Also, the “MIC (μg/mL) Mtb” value in [1] came out at 4 µg/mL (≈ 10.3 µM). Besides, the “MIC (μg/mL) Mtb Erdman” value in [1] was 8 µg/mL (≈ 20.6 µM). Further, the IC50 in assay [13] is 206 ± 6 nM.
Regarding `COc1cc(Cc2cnc(N)nc2N)cc(OC)c1OC` [TMP, reference compound], in assay [1], the “MIC (μg/mL) Mtb” value turned out to be 256 µg/mL (≈ 882 µM).
On to `CCc1nc(N)nc(N)c1C#CCc1cc(OC)cc(-c2ccc(C(=O)O)cc2)c1` [UCP1175], for which the MIC in assay [4] amounted to 2 µg/mL (≈ 4.97 µM); in [5], 0.5 µg/mL (≈ 1.24 µM); in assay [6] it was 0.5 µg/mL (≈ 1.24 µM); in [7] it was 8 µg/mL (≈ 19.9 µM); in assay [8] it was 0.125 µg/mL (≈ 0.311 µM). Besides, the “MIC (μg/mL) Mtb” value in assay [1] worked out at 0.125 µg/mL (≈ 0.311 µM). For the same compound, the “MIC (μg/mL) Mtb Erdman” value in [1] was determined as 0.5 µg/mL (≈ 1.24 µM). In [13] (IC50 (nM) MtbDHFR), the IC50 was found to be 460 ± 50 nM.
With `CCc1nc(N)nc(N)c1C#C[C@H](C)c1cc(-c2ccc(C(=O)O)cc2)ccc1OC` [UCP1163], in [1], the “MIC (μg/mL) Mtb” value is 16 µg/mL (≈ 38.4 µM).
`CCc1nc(N)nc(N)c1C#C[C@H](C)c1cc(-c2ccncc2)ccc1OC` [UCP1063]: the “MIC (μg/mL) Mtb” value in assay [1] was found to be 2 µg/mL (≈ 5.36 µM).
`CCc1nc(N)nc(N)c1-c1ccc(Cl)cc1` [pyrimethamine]: in assay [2], the “inhibition of the growth of Mtb” value is “fail to inhibit the growth”. Also, the “inhibition of the MtbDHFR enzyme” value in assay [3] is listed as “potent inhibitors”.
